{"source": "PubChem BioAssay (NCI)", "key": {"[1]": {"system": "P388/ADR leukemia", "test": "NCI tumour cell line growth inhibition, 48 h"}, "[2]": {"system": "P388 leukemia", "test": "NCI tumour cell line growth inhibition, 48 h"}}, "note": "“And” between values parts separate entries of the source, which are not always exact repeats. Identical values can stand only once.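 A five-concentration, 48-hour dose response in 96-well plates underlies each endpoint, interpolated linearly between surrounding concentrations. The concentration for 50% growth inhibition is given as GI50. TGI denotes the concentration required for complete inhibition of growth.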"}
{"compound": "O=C(Nc1ccccc1)c1c(O)[nH]c(=S)[nH]c1=O", "values": [{"measurement": "GI50", "setting": "[1]", "result": 46.9, "unit": "µM"}, {"measurement": "TGI", "setting": "[1]", "result": "80.6 µM and 116 µM"}, {"measurement": "GI50", "setting": "[2]", "result": 67, "unit": "µM"}, {"measurement": "TGI", "setting": "[2]", "result": "57.7 µM and > 250 µM"}]}
